Measured values reported in patent publication US6150414A, “Compositions and methods for treating viral infections” (priority 1992, dated 2000).
Values joined by “and” are separate entries in the source; they are usually repeats but may differ in a detail not shown here. Equal values may be shown once.

Assays:
[1] = molecular target: T1, Radiation Leukemia Virus reverse transcriptase (Radiation murine leukemia virus, UniProt P11227); experiment: Radiation Leukemia Virus reverse transcriptase assay, supernatants from infected AQR cells (Examples 4 and 9); type: biochemical; conditions: Table VIII; for CPM: replicate
T1 construct: the reverse transcriptase of Radiation Leukemia Virus; endogenous in cells
Protocol: (§1) Supernatants (10 ml/tube) from B10.T(6R) cells (Meruelo et al. J. Exp. Med. 147: 470-487, 1978) chronically infected with Radiation Leukemia Virus (RadLV) were obtained by centrifugation of cells in culture at 4° C., 3500 rpm for 15 minutes. The top 2/3 of the supernatant were removed and aliquots were incubated for 30 minutes on ice with the indicated amounts of hypericin or protohypericin. […] Thereafter, supernatants were centrifuged at 100,000×g using a TI70 rotor (Beckman Instruments) for 1 hour at 4° C. The pellet was […] and analyzed for reverse transcriptase activity as follows.
(§2) The reverse transcriptase assay was performed in a volume of 100 microliters containing the following components:
The antiviral activity of HHA was tested using AQR (Bach and Meruelo, J. Exp. Med. 160:270-285, 1984) cells chronically infected with Radiation Leukemia Virus in the reverse transcriptase assay as described in Example 3 above.
The assays were conducted using the same procedure as in Example 3 above, using supernatants from infected AQR cells.

[2] = tested on: Friend Leukemia Virus; experiment: In vivo inhibition of Friend Leukemia Virus splenomegaly, intravenous 1-2 hours post infection (Example 10); set-up: species or system mice; conditions: Mus musculus, read-out: EC50 for FV-induced splenomegaly
Protocol: (3) In vivo inhibition of Friend Leukemia Virus Splenomegaly performed as described in Example 1 above except that the compounds were administered intravenously 1-2 hours post infection.
(§3) The results presented above in Table IX are presented as EC50 concentrations. These are the effective concentrations which inhibit 50% of the viruses in micromolar concentrations.

[3] = tested on: retroviruses (virions); experiment: Direct inactivation of retroviruses (virions) in vitro (Example 10); type: biochemical, Radiation Leukemia Virus; conditions: Table IX
Protocol: as §1, §2
(1) Direct inactivation of retroviruses in vitro, performed as in Example 3 above;
as §3

[4] = tested on: Friend Virus; experiment: Friend Virus-induced splenomegaly, WIS compounds (Example 8); type: in vivo, mice; conditions: Table VII; for Actual Spleen Weight: single animal
Protocol: The effects of compositions according to the present invention on the increase in spleen size (splenomegaly) of BALB/c mice (Jackson Labs, Bar Harbor, ME) was examined. In these experiments, the virus (10^6 focus forming units--FFU) was inoculated intravenously and 100 micrograms of the compounds indicated in Table II were administered to the mice intraperitoneally 24 hours later. Each compound was administered once to two mice. The animals were sacrificed ten days later and their spleens weighed.
As used in Table II (and subsequent Tables of this Example l(a) and (b), "average percent inhibition" is calculated as follows: [formula] wherein "ASWNC" designates "average spleen weight of negative control"; "ASWE" designates "average spleen weight of experimental (treated) subject"; and "ASWPC" designates "average spleen weight of positive control". Average spleen weight is the numerical average of spleen weights of each experimental group (in Table II each such group includes two members).
The AAB compounds whose synthesis is described above were assayed for antiviral activity. WIS-2, -3, -4, -5 and -6 were tested to determine their biological effects on Friend Virus-induced splenomegaly using the procedure and technique set forth in Example 1 above. The assay results (three mice per group were tested each at different concentrationss of the active composition except for the PBS-negative control wherein two animals per group were used) are reported in Table VII below.

Compound: CC(=O)Oc1cc(O)c2c(=O)c3c(O)cc(C)c4c5c(C)cc(O)c6c(=O)c7c(O)cc(OC(C)=O)c8c1c2c(c34)c(c65)c78 [WIS-6, hypericin diacetate]
- Average CPM ([1]; 0.05 micrograms): 190,506 CPM
- CPM ([1]; 0.05 micrograms): 195,374 CPM and 185,638 CPM
- Average CPM ([1]; 0.1 micrograms): 389,388 CPM
- CPM ([1]; 0.1 micrograms): 188,378 CPM and 590,398 CPM
- Average CPM ([1]; 0.5 micrograms): 161,570 CPM
- CPM ([1]; 0.5 micrograms): 116,590 CPM and 206,550 CPM
- Average CPM ([1]; 1 microgram): 153,363 CPM
- CPM ([1]; 1 microgram): 124,996 CPM and 181,730 CPM
- Average CPM ([1]; 2 micrograms): 94,199 CPM
- CPM ([1]; 2 micrograms): 96,562 CPM and 91,836 CPM
- Average CPM ([1]; 5 micrograms): 90,273 CPM
- CPM ([1]; 5 micrograms): 86,850 CPM and 93,696 CPM
- Average CPM ([1]; 10 micrograms): 146,588 CPM
- CPM ([1]; 10 micrograms): 178,026 CPM and 115,150 CPM
- inhibition at 50 ng ([1]; 0.5 h, 0.05 micrograms): 76.7%
- inhibition at 0.0001 mg ([1]; 0.5 h, 0.1 micrograms): 52.3%
- inhibition at 0.0005 mg ([1]; 0.5 h, 0.5 micrograms): 80.2%
- inhibition at 0.001 mg ([1]; 0.5 h, 1 microgram): 81.2%
- inhibition at 0.002 mg ([1]; 0.5 h, 2 micrograms): 88.5%
- inhibition at 0.005 mg ([1]; 0.5 h, 5 micrograms): 88.9%
- inhibition at 0.01 mg ([1]; 0.5 h, 10 micrograms, read-out: Average % Inhibition): 82%
- EC50 [2]: > 255 µM
- EC50 [3]: 850 nM
- Average % Inhibition ([4]; 1 microgram): 18.4%
- Average Spleen Weight ([4]; 1 microgram): 0.8210
- Actual Spleen Weight ([4]; 1 microgram): 0.9291 and 0.8017 and 0.7323
- Average % Inhibition ([4]; 10 micrograms): 9.2%
- Average Spleen Weight ([4]; 10 micrograms): 0.8930
- Actual Spleen Weight ([4]; 10 micrograms): 0.8387 and 0.8529 and 0.9874
- Average % Inhibition ([4]; 50 micrograms): 3.2%
- Average Spleen Weight ([4]; 50 micrograms): 0.9407
- Actual Spleen Weight ([4]; 50 micrograms): 0.9012 and 0.9969 and 0.9241
- Average % Inhibition ([4]; 150 micrograms): 18.6%
- Average Spleen Weight ([4]; 150 micrograms): 0.8187
- Actual Spleen Weight ([4]; 150 micrograms): 0.7921 and 0.8013 and 0.8626
